Assay results as given in patent publication US20240165250A1, “Bifunctional Folate Receptor Binding Compounds” (Lycia Therapeutics, Inc., priority 2021, published 2024).
Where two headings read alike, the source gives them in different places.

Assays:
[1] = biological target: T1, FOLR2 (Homo sapiens, UniProt P14207); experiment: SPR binding kinetics of compounds to folate receptor (FOLR2); settings: immobilized FOLR2, compound 3.125-100 nM
T1 construct: purchased Acro Biosystems FO2-H5223-100 μg
Experimental: A Biacore 8K+ was used to measure the association and dissociation rates of example compounds to FOLR2 (Acro Biosystems, Cat: FO2-H5223-100 μg). Briefly, FOLR2 was reconstituted according to the manufacture's instructions to 200 μg/mL. Both the active and reference surfaces of a Cytiva CM5 Series S Sensor Chip were activated with a 1:1 mixture of 400 mM EDC and 100 mM NHS for 420 s at 10 μL/min. 25 μg/mL FOLR2 diluted in Sodium Acetate pH 5.5 was injected on the active channel (Flow Cell 2) for 420 s at 10p/min. Both the reference and active surfaces were then capped with 1M ethanolamine, pH 8.5 for 420 s, achieving an immobilization level of ˜4200 RU. Example compounds were serially diluted 1:1 in running buffer (10 mM HEPES, 150 mM NaCl, 0.05% T20, pH 7.5, 2% DMSO) from 100 nM to 3.125 nM and flowed over the active and reference surfaces for 120 s, and then allowed to dissociate in running buffer for 600 s, at 30 uL/min. The FOLR2 immobilized active surface and the reference surface were regenerated with a 30 s pulse of Sodium Acetate pH 5.5 at 30 μL/min. Sensorgrams were solvent corrected, double-referenced, and the data fitted and analyzed in Biacore Insight Evaluation Software Version 3.0.11.15423.
FIG. 1 illustrates the SPR sensorgrams for various concentrations of compound I-21 (3.125 nM to 100 nM) to folate receptor 2 (FOLR2), illustrating 1:1 binding.

[2] = biological target: T2, TNFα trimer (Homo sapiens, UniProt P01375); experiment: SPR binding kinetics of compounds to TNFα trimer (single-cycle kinetics); settings: for kon: read-out: ka
T2 construct: Ligand MW (Da) 53729.8; fused on or other part: Three copies of soluble TNF-alpha joined by linkers into one polypeptide; The protein is biotinylated and captured on immobilised streptavidin
Experimental: Streptavidin 100 μg/mL Streptavidin (Invitrogen Cat #:434302) diluted in 10 mM sodium acetate, pH 4.5) was immobilized to both the reference and active surfaces as described in Example 51. The surfaces were conditioned with three injections of running Buffer (10 mM HEPES, 150 mM NaCl, 0.05% T20, pH 7.5, 2% DMSO) at a flow rate of 10 μL/min, Contact time: 60 s. Flow rate: 10 μL/min. The active surface was treated with biotinylated linked TNFα timer 20 μg/mL diluted in running buffer at a flow rate of 5 μL/min contact time: 600 s, yielding a final response of ˜3000 RU. Example compounds were then serially diluted 1:1 in running buffer (10 mM HEPES, 150 mM NaCl, 0.05% T20, pH 7.5, 2% DMSO) from 30 uM to 937.5 nM and flowed over the active and reference surfaces from lowest concentration to greatest concentration in the single-cycle kinetics format, and then allowed to dissociate in running buffer for 7200 s, at 30 μL/min. Sensorgrams were solvent corrected, double-referenced, and the data fitted and analyzed in Biacore Insight Evaluation Software Version 3.0.11.15423.

[3] = biological target: T3, TNFα (Homo sapiens, UniProt P01375+P14207); experiment: Compound mediated uptake of TNFα-pHrodo in THP-1 cells (flow cytometry); assay type: cell-based; settings: 125 nM-20 μM, 24 hrs, FIG. 4
T3 construct: made in house
Experimental: THP-1 cells, a monocytic leukemia cell line that endogenously express folate receptor beta, were used as a model system to measure example compound stimulated uptake of in-house produced TNFα conjugated to the pH sensitive fluorescent dye pHrodo green (ThermoFisher Scientific #P35369).
THP-1 cells were maintained in RPMI (Gibco #61870143) with 10% v/v FBS (VWR #89510-188) with 2 mM L-alanyl-L-glutamine dipeptide, 100 units/ml penicillin and 100 ug/ml streptomycin (Gibco #15140148). Cells were pelleted, resuspended in folate-free RPMI (Gibco #27016021) and seeded at 50,000 cells per well of a 96 well plate. Example compound was added to each well as a log 2 dilution series ranging from 20 μM to 125 nM final concentration. Cells were incubated for 24 hrs and washed/resuspended in phosphate buffered saline (pH 7.4) with 1% w/v BSA. Uptake was measured using a Novocyte Advanteon Flow Cytometer (Agilent Technologies) with the […] and FITC detection configuration.

[4] = biological target: T3, TNFα; experiment: Compound mediated degradation of TNFα in THP-1 cells (pulse-chase, TNFα-biotin blot); assay type: cell-based; settings: PMA differentiated THP-1 cells, compound 10 μM, FIG. 5
Experimental: To measure degradation of internalized TNFα, a pulse-chase experiment was performed whereby cells were treated with +/− example compounds and/or +/− protease inhibitors and incubated for 1 hr in media containing TNFα-biotin to allow uptake and then washed and incubated 90 minutes in fresh media without TNFα to allow degradation. Samples were collected after the pulse phase (60 min) and chase phase (90 min) to measure uptake and degradation, respectively.
THP-1 cells were seeded at 100,000 cells per well of 12 well plate with 1 mL RPMI+10% w/w FBS+1× penicillin/streptomycin and differentiated using 20 ng/mL phorbol myristate acetate (Sigma-Aldrich #P8139) for 72 hrs. After 72 hrs media was replaced with 1 ml RPMI+10% v/v FBS+1× penicillin/streptomycin and TNFα-biotin (AcroBiosystems #50-201-9879) was added to 12.5 nM final concentration. Where noted example compound was added at 10 μM final concentration and protease inhibitors were added at 100 ug/ml final concentration for leupeptin (Sigma-Aldrich #L2884) or 1 μg/ml final concentration for pepstatin A (Sigma-Aldrich #BP26715). […] Relative quantification of bands was performed using the ImageLab software (BioRad) with endogenously biotinylated proteins serving as endogenous controls. […]

[5] = biological target: T3, TNFα; experiment: Compound mediated depletion of HiBiT-TNFα from the medium of THP-1 cells; assay type: cell-based; settings: compound 10 μM, FIG. 6
From the text: An in-house recombinantly expressed and purified N-terminal fusion of HiBiT with TNFα was used to measure example compound-stimulated depletion from the media. HiBiT and largeBiT are split nanoluciferase polypeptides that result in complementation of luciferase activity in the presence of both polypeptides. The level of HiBit-TNFα in the media over time can be measure by sampling the media and mixing with the Nano-Glo HiBiT Extracellular Detection Reagent (Promega Corporation) containing the largeBiT polypeptide and nanoluciferase substrate.
THP-1 cells were seeded at 100,000 cells per well of 12 well plate with 1 mL RPMI+10% w/w FBS+1× penicillin/streptomycin and differentiated using 20 ng/mL phorbol myristate acetate (Sigma-Aldrich #P8139) for 72 hrs. After 72 hrs the growth medium was replaced with 1 ml RPMI+10% v/v FBS+1× penicillin/streptomycin containing 12.5 nM HiBit-TNFα. Where noted example compound was added at 10 μM final concentration. The medium was sampled (50 μl) at 0, 24, 48 and 96 hr and luciferase activity was measured using the Nano-Glo HiBiT Extracellular Detection Reagent.

[6] = SPR single cycle kinetics, immobilized TNFα trimer
[7] = SPR single cycle kinetics, immobilized TNFα trimer, compound 937.5 nM-30 uM

T3 sequence (P01375 77-233 limits assumed, species assumed): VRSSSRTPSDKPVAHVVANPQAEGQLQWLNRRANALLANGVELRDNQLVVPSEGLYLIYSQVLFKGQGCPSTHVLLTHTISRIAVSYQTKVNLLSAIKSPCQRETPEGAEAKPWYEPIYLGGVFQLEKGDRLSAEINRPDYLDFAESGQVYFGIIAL
T3 sequence (P14207 17-230 limits assumed, species assumed): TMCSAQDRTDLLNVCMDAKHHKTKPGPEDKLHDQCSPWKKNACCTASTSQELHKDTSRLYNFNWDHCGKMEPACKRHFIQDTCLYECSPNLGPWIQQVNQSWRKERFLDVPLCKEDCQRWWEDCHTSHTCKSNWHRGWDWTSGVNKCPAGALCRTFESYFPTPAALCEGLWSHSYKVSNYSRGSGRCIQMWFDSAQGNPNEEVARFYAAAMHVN
T2 sequence (P01375 88-233 limits assumed): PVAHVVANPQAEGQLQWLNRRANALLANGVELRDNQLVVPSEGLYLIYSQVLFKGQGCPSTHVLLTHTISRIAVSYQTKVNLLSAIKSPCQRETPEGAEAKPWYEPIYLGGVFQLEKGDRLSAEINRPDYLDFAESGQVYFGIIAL
T1 sequence (P14207 17-230): as the sequence (P14207 17-230 limits assumed, species assumed) above

Cc1nc2cc(F)c(-c3cnc(OCCCCCn4cc(COCCOCCOCCOCCNC(=O)[C@H](CCC(=O)O)NC(=O)c5ccc(NCc6cnc7nc(N)nc(O)c7n6)cc5)nn4)nc3)nc2c(N[C@H](C)c2cc(C#N)ccc2F)c1Cl [Compound I-21, (S)-16-(4-(((2-amino-4-hydroxypteridin-6-yl)methyl)amino)benzamido)-1-(1-(5-((5-(7-chloro-8-(((R)-1-(5-cyano-2-fluorophenyl)ethyl)amino)-3-fluoro-6-methyl-1,5-naphthyridin-2-yl)pyrimidin-2-yl)oxy)pentyl)-1H-1,2,3-triazol-4-yl)-15-oxo-2,5,8,11-tetraoxa-14-azanonadecan-19-oic acid]
Kd [1]: 0.833 nM | kon ([1]; read-out: ka): 5.57e+06 M⁻¹ s⁻¹ | Kd [2, 6]: 80.5 nM | kon [2, 7]: 963 M⁻¹ s⁻¹

Cc1nc2cc(F)c(-c3cnc(OCCCCCn4cc(COCCOCCNC(=O)CC[C@H](NC(=O)c5ccc(NCc6cnc7nc(N)nc(O)c7n6)cc5)C(=O)O)nn4)nc3)nc2c(N[C@H](C)c2cc(C#N)ccc2F)c1Cl [Compound I-16, N2-(4-(((2-amino-4-hydroxypteridin-6-yl)methyl)amino)benzoyl)-N5-(2-(2-((1-(5-((5-(7-chloro-8-(((R)-1-(5-cyano-2-fluorophenyl)ethyl)amino)-3-fluoro-6-methyl-1,5-naphthyridin-2-yl)pyrimidin-2-yl)oxy)pentyl)-1H-1,2,3-triazol-4-yl)methoxy)ethoxy)ethyl)-L-glutamine]
binding mode from SPR sensorgrams ([2]; FIGS. 2A-2C): 1:1 binding | Kd [2, 6]: 50.2 nM | Rmax [2, 6]: 43.7 RU | kd [2, 6]: 5.81e-05 s⁻¹ | Stoichiometry ([2]; SPR, Rmax versus expected Rmax): 0.7 | kon [2]: 1160 M⁻¹ s⁻¹

Cc1nc2cc(F)c(-c3cnc(OCCCCCn4cc(COCCOCCOCCOCCNC(=O)CC[C@H](NC(=O)c5ccc(NCc6cnc7nc(N)nc(O)c7n6)cc5)C(=O)O)nn4)nc3)nc2c(N[C@H](C)c2cc(C#N)ccc2F)c1Cl [Compound I-17, (S)-18-(4-(((2-amino-4-hydroxypteridin-6-yl)methyl)amino)benzamido)-1-(1-(5-((5-(7-chloro-8-(((R)-1-(5-cyano-2-fluorophenyl)ethyl)amino)-3-fluoro-6-methyl-1,5-naphthyridin-2-yl)pyrimidin-2-yl)oxy)pentyl)-1H-1,2,3-triazol-4-yl)-15-oxo-2,5,8,11-tetraoxa-14-azanonadecan-19-oic acid]
uptake of labelled TNFα (median fluorescence intensity of pHrodo dye) [3]: stimulated uptake of labelled TNFα in THP-1 cells in a dose-dependent manner | degradation and rescue of TNFα [4]: mediated degradation and rescue of TNFα | rate of depletion of HiBiT-TNFα from medium ([5]; first 24 hours): more rapid depletion of HiBiT-TNFα over the first 24 hours | total depletion of HiBiT-TNFα from the culture medium ([5]; sampled to 96 hr): greater total depletion of HiBiT-TNFα from the culture medium

Nc1nc(O)c2nc(CNc3ccc(C(=O)N[C@@H](CCC(=O)NCCOCCOCCOCCOCc4cn(CCCCCOc5ccc(-c6ccc7nc(COc8cccc(N9CCCC9=O)c8)n(Cc8ccccc8OC(F)F)c7c6)cn5)nn4)C(=O)O)cc3)cnc2n1 [Compound I-25, (S)-18-(4-(((2-amino-4-hydroxypteridin-6-yl)methyl)amino)benzamido)-1-(1-(5-((5-(1-(2-(difluoromethoxy)benzyl)-2-((3-(2-oxopyrrolidin-1-yl)phenoxy)methyl)-1H-benzo[d]imidazol-6-yl)pyridin-2-yl)oxy)pentyl)-1H-1,2,3-triazol-4-yl)-15-oxo-2,5,8,11-tetraoxa-14-azanonadecan-19-oic acid]
Kd [2, 6]: 4.18 nM | kon [2, 7]: 874 M⁻¹ s⁻¹
